Assay results reported in US11739074B2, “Ras inhibitors” (Revolution Medicines, Inc., priority 2019, dated 2023).
Read-outs that look alike come from different tables or passages of the source.

Experiments:
AsPC-1 (K-Ras G12D) [1] = assay: CellTiter-Glo cell viability assay, AsPC-1; format: cell-based; conditions: Homo sapiens, ASPC1, 120 h
How it was run: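 Test compounds were dispensed directly onto seeded cells, and on day 5 plates were brought to room temperature for about 30 minutes before CellTiter-Glo luminescence was read. Signals were expressed as percent of the mean DMSO control and fitted with a four-parameter logistic model.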

AsPC-1 (K-Ras G12D) [2] = assay: Potency assay: pERK in AsPC-1 cells; format: cell-based; conditions: Homo sapiens
[3] = AsPC-1, K-Ras G12D, 5-day treatment, read-out: AsPC-1 Cell Viability IC50
[4] = ASPC1, AsPC-1 cells, K-Ras G12D, read-out: pERK EC50 (AsPC-1 KRAS G12D)
[5] = read-out: AsPC-1 Cell Viability IC50, AsPC-1, K-Ras G12D, 5-day treatment
[6] = ASPC1, read-out: pERK EC50 (AsPC-1 KRAS G12D)

| Compound | IC50 (AsPC-1 (K-Ras G12D) [1]; [3]) [µM] | EC50 (AsPC-1 (K-Ras G12D) [2]; [4]) [µM] | IC50 (AsPC-1 (K-Ras G12D) [1]; [5]) [µM] | EC50 (AsPC-1 (K-Ras G12D) [2]; [6]) [µM] |
| --- | --- | --- | --- | --- |
| CCn1c(-c2cccnc2[C@H](C)OC)c2c3cc(ccc31)-c1csc(n1)C[C@H](NC(=O)[C@H](C(C)C)N(C)C(=O)N1CC(N(C)C(=O)[C@@H]3CN3)C1)C(=O)N1CCC[C@H](N1)C(=O)OCC(C)(C)C2 [Compound 219] | 1 to 10 | < 5 |  |  |
| CCn1c(-c2cccnc2[C@H](C)OC)c2c3cc(ccc31)-c1csc(n1)C[C@H](NC(=O)[C@H](C(C)C)N(C)C(=O)N(C)C1CN(C(=O)[C@H]3CN3)C1)C(=O)N1CCC[C@H](N1)C(=O)OCC(C)(C)C2 [Compound 220] | 1 to 10 | < 5 |  |  |
| CCn1c(-c2cccnc2[C@H](C)OC)c2c3cc(ccc31)-c1csc(n1)C[C@H](NC(=O)[C@H](C(C)C)N(C)C(=O)N(C)C1CN(C(=O)[C@@H]3CN3)C1)C(=O)N1CCC[C@H](N1)C(=O)OCC(C)(C)C2 [Compound 221] | 1 to 10 | < 5 |  |  |
| CCn1c(-c2cccnc2[C@H](C)OC)c2c3cc(ccc31)-c1csc(n1)C[C@H](NC(=O)[C@H](C(C)C)N(C)C(=O)N1CC[C@H](N(C)C(=O)[C@@H]3CN3)C1)C(=O)N1CCC[C@H](N1)C(=O)OCC(C)(C)C2 [Compound 229] | 1 to 10 | < 5 |  |  |
| CCn1c(-c2cccnc2[C@H](C)OC)c2c3cc(ccc31)-c1cc(O)cc(c1)C[C@H](NC(=O)[C@H](C(C)C)N(C)C(=O)[C@@H]1CCCN(C(=O)[C@H]3CN3)C1)C(=O)N1CCC[C@H](N1)C(=O)OCC(C)(C)C2 [Compound 237] | 1 to 10 | < 5 |  |  |
| CCn1c(-c2cccnc2[C@H](C)OC)c2c3cc(ccc31)-c1cc(O)cc(c1)C[C@H](NC(=O)[C@H](C(C)C)N(C)C(=O)[C@@H]1CCCN(C(=O)[C@@H]3CN3)C1)C(=O)N1CCC[C@H](N1)C(=O)OCC(C)(C)C2 [Compound 238] | 1 to 10 | < 5 |  |  |
| CCn1c(-c2cccnc2[C@H](C)OC)c2c3cc(ccc31)-c1cc(O)cc(c1)C[C@H](NC(=O)[C@@H](C(C)C)N(C)C(=O)[C@@]1(C)CCCN1C(=O)[C@@H]1CN1)C(=O)N1CCC[C@H](N1)C(=O)OCC(C)(C)C2 [Compound 242] | 1 to 10 | < 5 |  |  |
| CCn1c(-c2cccnc2[C@H](C)OC)c2c3cc(ccc31)-c1cc(O)cc(c1)C[C@H](NC(=O)[C@H](C(C)C)N(C)C(=O)[C@]13C[C@H]1CCN3C(=O)[C@H]1CN1)C(=O)N1CCC[C@H](N1)C(=O)OCC(C)(C)C2 [Compound 244] | 1 to 10 | < 5 |  |  |
| CCn1c(-c2cccnc2[C@H](C)OC)c2c3cc(ccc31)-c1cc(O)cc(c1)C[C@H](NC(=O)[C@H](C(C)C)N(C)C(=O)[C@H]1C[C@H]3CC[C@@H](C1)N3C(=O)[C@H]1CN1)C(=O)N1CCC[C@H](N1)C(=O)OCC(C)(C)C2 [Compound 245] | 1 to 10 | < 5 |  |  |
| CCn1c(-c2cccnc2[C@H](C)OC)c2c3cc(ccc31)-c1cc(O)cc(c1)C[C@H](NC(=O)[C@H](C(C)C)N(C)C(=O)[C@H]1C[C@H]3CC[C@@H](C1)N3C(=O)[C@@H]1CN1)C(=O)N1CCC[C@H](N1)C(=O)OCC(C)(C)C2 [Compound 246] | 1 to 10 | < 5 |  |  |
| CCn1c(-c2cccnc2[C@H](C)OC)c2c3cc(ccc31)-c1cc(O)cc(c1)C[C@H](NC(=O)[C@H](C(C)C)N(C)C(=O)[C@H]1CCCCN(C(=O)[C@H]3CN3)C1)C(=O)N1CCC[C@H](N1)C(=O)OCC(C)(C)C2 [Compound 247] | 1 to 10 | < 5 |  |  |
| CCn1c(-c2cccnc2[C@H](C)OC)c2c3cc(ccc31)-c1cc(O)cc(c1)C[C@H](NC(=O)[C@H](C(C)C)N(C)C(=O)N1CC[C@H](N(C)C(=O)[C@H]3CN3)C1)C(=O)N1CCC[C@H](N1)C(=O)OCC(C)(C)C2 [Compound 254] | > 10 | < 5 |  |  |
| CCn1c(-c2cccnc2[C@H](C)OC)c2c3cc(ccc31)-c1cc(O)cc(c1)C[C@H](NC(=O)[C@H](C(C)C)N(C)C(=O)N1CC[C@H](N(C)C(=O)[C@@H]3CN3)C1)C(=O)N1CCC[C@H](N1)C(=O)OCC(C)(C)C2 [Compound 255] | 1 to 10 | < 5 |  |  |
| CCn1c(-c2cccnc2[C@H](C)OC)c2c3cc(ccc31)-c1cc(O)cc(c1)C[C@H](NC(=O)[C@H](C(C)C)N(C)C(=O)CN(C)C(=O)[C@@H]1CN1CCCN1CCCC1=O)C(=O)N1CCC[C@H](N1)C(=O)OCC(C)(C)C2 (stereo partly drawn) [Compound 269] |  |  | 1 to 10 | < 5 |
| CCn1c(-c2cccnc2[C@H](C)OC)c2c3cc(ccc31)-c1cc(O)cc(c1)C[C@H](NC(=O)[C@H](C(C)C)N(C)C(=O)CN(C)C(=O)[C@@H]1CN1CC(=O)N(C)C)C(=O)N1CCC[C@H](N1)C(=O)OCC(C)(C)C2 (stereo partly drawn) [Compound 271] |  |  | > 10 | < 5 |
| CCn1c(-c2cccnc2[C@H](C)OC)c2c3cc(ccc31)-c1cc(O)cc(c1)C[C@H](NC(=O)[C@H](C(C)C)N(C)C(=O)CN(C)C(=O)[C@H]1CN1CCCN1CCOC1=O)C(=O)N1CCC[C@H](N1)C(=O)OCC(C)(C)C2 (stereo partly drawn) [Compound 272] |  |  | 1 to 10 | < 5 |
| CCn1c(-c2cccnc2[C@H](C)OC)c2c3cc(ccc31)-c1cc(O)cc(c1)C[C@H](NC(=O)[C@H](C(C)C)N(C)C(=O)CN(C)C(=O)[C@H]1CN1C1COC1)C(=O)N1CCC[C@H](N1)C(=O)OCC(C)(C)C2 (stereo partly drawn) [Compound 275] |  |  | 1 to 10 | < 5 |
| CCn1c(-c2cccnc2[C@H](C)OC)c2c3cc(ccc31)-c1cc(O)cc(c1)C[C@H](NC(=O)[C@H](C(C)C)N(C)C(=O)CN(C)C(=O)[C@@H]1CN1CC1COC1)C(=O)N1CCC[C@H](N1)C(=O)OCC(C)(C)C2 (stereo partly drawn) [Compound 278] |  |  | 1 to 10 | < 5 |
| CCn1c(-c2cccnc2[C@H](C)OC)c2c3cc(ccc31)-c1cc(O)cc(c1)C[C@H](NC(=O)[C@H](C(C)C)N(C)C(=O)CN(C)C(=O)[C@@H]1N[C@@H]1C1COC1)C(=O)N1CCC[C@H](N1)C(=O)OCC(C)(C)C2 [Compound 281] |  |  | 0.1 to 1 | < 5 |
| CCn1c(-c2cccnc2[C@H](C)OC)c2c3cc(ccc31)-c1cc(O)cc(c1)C[C@H](NC(=O)[C@H](C(C)C)N(C)C(=O)CN(C)C(=O)[C@H]1N[C@H]1C1COC1)C(=O)N1CCC[C@H](N1)C(=O)OCC(C)(C)C2 [Compound 282] |  |  | 1 to 10 | < 5 |
| CCn1c(-c2cccnc2[C@H](C)OC)c2c3cc(ccc31)-c1cc(O)cc(c1)C[C@H](NC(=O)[C@H](C(C)C)N(C)C(=O)CN(C)C(=O)[C@H]1N[C@@H]1C1COC1)C(=O)N1CCC[C@H](N1)C(=O)OCC(C)(C)C2 [Compound 284] |  |  | 1 to 10 | < 5 |
| CCn1c(-c2cccnc2[C@H](C)OC)c2c3cc(ccc31)-c1cc(O)cc(c1)C[C@H](NC(=O)[C@H](C(C)C)N(C)C(=O)[C@H]1C[C@@H]3N[C@@H]3C1)C(=O)N1CCC[C@H](N1)C(=O)OCC(C)(C)C2 [Compound 286] | 1 to 10 | < 5 |  |  |
| CCn1c(-c2cccnc2[C@H](C)OC)c2c3cc(ccc31)-c1csc(n1)C[C@H](NC(=O)[C@H](C(C)C)N(C)C(=O)N(C)[C@H]1CCCN(C(=O)[C@H]3CN3)C1)C(=O)N1CCC[C@H](N1)C(=O)OCC(C)(C)C2 [Compound 295] | 1 to 10 | < 5 |  |  |
| CCn1c(-c2cccnc2[C@H](C)OC)c2c3cc(ccc31)-c1cc(O)cc(c1)C[C@H](NC(=O)[C@H](C(C)C)N1CC[C@]3(CCN(C(=O)[C@@H]4N[C@@H]4C4CC4)C3)C1=O)C(=O)N1CCC[C@H](N1)C(=O)OCC(C)(C)C2 [Compound 305] | 0.1 to 1 | < 5 |  |  |
| CCN1C[C@@H]1C(=O)N(C)CC(=O)N(C)[C@H](C(=O)N[C@H]1Cc2cc(O)cc(c2)-c2ccc3c(c2)c(c(-c2cccnc2[C@H](C)OC)n3CC)CC(C)(C)COC(=O)[C@@H]2CCCN(N2)C1=O)C1CCCC1 (stereo partly drawn) [Compound 309] | 0.01 to 0.1 | < 5 |  |  |
| CCn1c(-c2cccnc2[C@H](C)OC)c2c3cc(ccc31)-c1csc(n1)C[C@H](NC(=O)[C@H](C(C)C)N(C)C(=O)N(C)[C@H]1CCN(C(=O)[C@@H]3CN3)C1)C(=O)N1CCC[C@H](N1)C(=O)OCC(C)(C)C2 [Compound 310] | 1 to 10 | < 5 |  |  |
| CCn1c(-c2cccnc2[C@H](C)OC)c2c3cc(ccc31)-c1cc(O)cc(c1)C[C@H](NC(=O)[C@H](C(C)C)N(C)C(=O)[C@]1(F)CCN(C(=O)[C@H]3CN3)C1)C(=O)N1CCC[C@H](N1)C(=O)OCC(C)(C)C2 [Compound 311] | 0.1 to 1 | < 5 |  |  |
| CCn1c(-c2cccnc2[C@H](C)OC)c2c3cc(ccc31)-c1cc(O)cc(c1)C[C@H](NC(=O)[C@H](C1CCCC1)N(C)C(=O)CN(C)C(=O)[C@@H]1N[C@@H]1C1(F)CC1)C(=O)N1CCC[C@H](N1)C(=O)OCC(C)(C)C2 [Compound 314] | 0.1 to 1 | < 5 |  |  |
| CCn1c(-c2cccnc2[C@H](C)OC)c2c3cc(ccc31)-c1cc(O)cc(c1)C[C@H](NC(=O)[C@H](C1CCCC1)N(C)C(=O)CN(C)C(=O)[C@H]1N[C@H]1C1(F)CC1)C(=O)N1CCC[C@H](N1)C(=O)OCC(C)(C)C2 [Compound 315] | 0.1 to 1 | < 5 |  |  |
| CCn1c(-c2cccnc2[C@H](C)OC)c2c3cc(ccc31)-c1cc(O)cc(c1)C[C@H](NC(=O)[C@H](C1CCCC1)N(C)C(=O)[C@@H](C)N(C)C(=O)[C@@H]1N[C@@H]1C1CC1)C(=O)N1CCC[C@H](N1)C(=O)OCC(C)(C)C2 [Compound 327] | 1 to 10 | < 5 |  |  |
